What was measured:
Format in all cases: organism-based
Settings in all cases: in vivo, other
Phaseolus vulgaris [1] = experiment: Phytotoxicity against Phaseolus vulgaris (white beans) assessed as yield at 2232 g a.i./ha applied pre-emergence 1 to 2 days post-planting measured on day 42 post-emergence (reference value: 3 tons/ha)
Phaseolus vulgaris [2] = experiment: Phytotoxicity against Phaseolus vulgaris (kidney beans) assessed as plant height at 1116 g a.i./ha applied pre-emergence 1 to 2 days post-planting measured on day 28 post-emergence (reference value: 37 cm)
Phaseolus vulgaris [3] = experiment: Phytotoxicity against Phaseolus vulgaris (yellow eye beans) assessed as visual crop injury at 2232 g a.i./ha applied pre-emergence 1 to 2 days post-planting measured on day 14 post-emergence relative to control
Phaseolus vulgaris [4] = experiment: Phytotoxicity against Phaseolus vulgaris (cranberry beans) assessed as visual crop injury at 1116 g a.i./ha applied pre-emergence 1 to 2 days post-planting measured on day 14 post-emergence relative to control
Phaseolus vulgaris [5] = experiment: Phytotoxicity against Phaseolus vulgaris (cranberry beans) assessed as yield at 2232 g a.i./ha applied pre-emergence 1 to 2 days post-planting measured on day 42 post-emergence (reference value: 3.1 tons/ha)
Phaseolus vulgaris [6] = experiment: Phytotoxicity against Phaseolus vulgaris (dry beans) assessed as visual crop injury at 2232 g a.i./ha applied pre-emergence 1 to 2 days post-planting measured on day 28 post-emergence relative to control
Phaseolus vulgaris [7] = experiment: Phytotoxicity against Phaseolus vulgaris (pinto beans) assessed as visual crop injury at 1116 g a.i./ha applied pre-emergence 1 to 2 days post-planting measured on day 14 post-emergence relative to control
Phaseolus vulgaris [8] = experiment: Phytotoxicity against Phaseolus vulgaris (brown beans) assessed as visual crop injury at 1116 g a.i./ha applied pre-emergence 1 to 2 days post-planting measured on day 14 post-emergence relative to control
Phaseolus vulgaris [9] = experiment: Phytotoxicity against Phaseolus vulgaris (otebo beans) assessed as shoot dry weight at 1116 g a.i./ha applied pre-emergence 1 to 2 days post-planting measured on day 42 post-emergence (reference value: 188 g/m)
Phaseolus vulgaris [10] = experiment: Phytotoxicity against Phaseolus vulgaris (cranberry beans) assessed as shoot dry weight at 1116 g a.i./ha applied pre-emergence 1 to 2 days post-planting measured on day 42 post-emergence (reference value: 161 g/m)
Phaseolus vulgaris [11] = experiment: Phytotoxicity against Phaseolus vulgaris (kidney beans) assessed as yield at 2232 g a.i./ha applied pre-emergence 1 to 2 days post-planting measured on day 42 post-emergence (reference value: 2.3 tons/ha)
Phaseolus vulgaris [12] = experiment: Phytotoxicity against Phaseolus vulgaris (white beans) assessed as plant height at 2232 g a.i./ha applied pre-emergence 1 to 2 days post-planting measured on day 28 post-emergence (reference value: 36 cm)
Phaseolus vulgaris [13] = experiment: Phytotoxicity against Phaseolus vulgaris (brown beans) assessed as visual crop injury at 2232 g a.i./ha applied pre-emergence 1 to 2 days post-planting measured on day 14 post-emergence relative to control
Phaseolus vulgaris [14] = experiment: Phytotoxicity against Phaseolus vulgaris (yellow eye beans) assessed as plant height at 2232 g a.i./ha applied pre-emergence 1 to 2 days post-planting measured on day 28 post-emergence (reference value: 38 cm)
Phaseolus vulgaris [15] = experiment: Phytotoxicity against Phaseolus vulgaris (dry beans) assessed as visual crop injury at 1116 g a.i./ha applied pre-emergence 1 to 2 days post-planting measured on day 14 post-emergence relative to control
Phaseolus vulgaris [16] = experiment: Phytotoxicity against Phaseolus vulgaris (brown beans) assessed as yield at 1116 g a.i./ha applied pre-emergence 1 to 2 days post-planting measured on day 42 post-emergence (reference value: 2.5 tons/ha)
Phaseolus vulgaris [17] = experiment: Phytotoxicity against Phaseolus vulgaris (white beans) assessed as visual crop injury at 1116 g a.i./ha applied pre-emergence 1 to 2 days post-planting measured on day 14 post-emergence relative to control
Phaseolus vulgaris [18] = experiment: Phytotoxicity against Phaseolus vulgaris (cranberry beans) assessed as shoot dry weight at 2232 g a.i./ha applied pre-emergence 1 to 2 days post-planting measured on day 42 post-emergence (reference value: 161 g/m)
Phaseolus vulgaris [19] = experiment: Phytotoxicity against Phaseolus vulgaris (kidney beans) assessed as shoot dry weight at 1116 g a.i./ha applied pre-emergence 1 to 2 days post-planting measured on day 42 post-emergence (reference value: 145 g/m)
Phaseolus vulgaris [20] = experiment: Phytotoxicity against Phaseolus vulgaris (cranberry beans) assessed as plant height at 1116 g a.i./ha applied pre-emergence 1 to 2 days post-planting measured on day 28 post-emergence (reference value: 37 cm)
Phaseolus vulgaris [21] = experiment: Phytotoxicity against Phaseolus vulgaris (black beans) assessed as visual crop injury at 2232 g a.i./ha applied pre-emergence 1 to 2 days post-planting measured on day 14 post-emergence relative to control
Phaseolus vulgaris [22] = experiment: Phytotoxicity against Phaseolus vulgaris (kidney beans) assessed as visual crop injury at 1116 g a.i./ha applied pre-emergence 1 to 2 days post-planting measured on day 14 post-emergence relative to control
Phaseolus vulgaris [23] = experiment: Phytotoxicity against Phaseolus vulgaris (otebo beans) assessed as yield at 2232 g a.i./ha applied pre-emergence 1 to 2 days post-planting measured on day 42 post-emergence (reference value: 3.4 tons/ha)
Phaseolus vulgaris [24] = experiment: Phytotoxicity against Phaseolus vulgaris (brown beans) assessed as yield at 2232 g a.i./ha applied pre-emergence 1 to 2 days post-planting measured on day 42 post-emergence (reference value: 2.5 tons/ha)
Phaseolus vulgaris [25] = experiment: Phytotoxicity against Phaseolus vulgaris (white beans) assessed as plant height at 1116 g a.i./ha applied pre-emergence 1 to 2 days post-planting measured on day 28 post-emergence (reference value: 36 cm)
Phaseolus vulgaris [26] = experiment: Phytotoxicity against Phaseolus vulgaris (dry beans) assessed as change in seed moisture content at 1116 to 2232 g a.i./ha applied pre-emergence 1 to 2 days post-planting relative to control
Phaseolus vulgaris [27] = experiment: Phytotoxicity against Phaseolus vulgaris (white beans) assessed as yield at 1116 g a.i./ha applied pre-emergence 1 to 2 days post-planting measured on day 42 post-emergence (reference value: 3 tons/ha)
Phaseolus vulgaris [28] = experiment: Phytotoxicity against Phaseolus vulgaris (white beans) assessed as shoot dry weight at 2232 g a.i./ha applied pre-emergence 1 to 2 days post-planting measured on day 42 post-emergence (reference value: 175 g/m)
Phaseolus vulgaris [29] = experiment: Phytotoxicity against Phaseolus vulgaris (pinto beans) assessed as yield at 2232 g a.i./ha applied pre-emergence 1 to 2 days post-planting measured on day 42 post-emergence (reference value: 3.1 tons/ha)
Phaseolus vulgaris [30] = experiment: Phytotoxicity against Phaseolus vulgaris (pinto beans) assessed as yield at 1116 g a.i./ha applied pre-emergence 1 to 2 days post-planting measured on day 42 post-emergence (reference value: 3.1 tons/ha)
Phaseolus vulgaris [31] = experiment: Phytotoxicity against Phaseolus vulgaris (otebo beans) assessed as yield at 1116 g a.i./ha applied pre-emergence 1 to 2 days post-planting measured on day 42 post-emergence (reference value: 3.4 tons/ha)
Phaseolus vulgaris [32] = experiment: Phytotoxicity against Phaseolus vulgaris (dry beans) assessed as visual crop injury at 2232 g a.i./ha applied pre-emergence 1 to 2 days post-planting measured on day 14 post-emergence relative to control

## CC1(C)CON(Cc2ccccc2Cl)C1=O [CLOMAZONE]
Phaseolus vulgaris [1]
  Crop_yield: 3.2 tons/ha
Phaseolus vulgaris [2]
  Activity: 35 cm
Phaseolus vulgaris [3]
  Activity: 10%
Phaseolus vulgaris [4]
  Activity: 6%
Phaseolus vulgaris [5]
  Crop_yield: 3 tons/ha
Phaseolus vulgaris [6]
  Activity: 4%
Phaseolus vulgaris [7]
  Activity: 4%
Phaseolus vulgaris [8]
  Activity: 3%
Phaseolus vulgaris [9]
  Activity: 189 g/m
Phaseolus vulgaris [10]
  Activity: 150 g/m
Phaseolus vulgaris [11]
  Crop_yield: 2.3 tons/ha
Phaseolus vulgaris [12]
  Activity: 32 cm
Phaseolus vulgaris [13]
  Activity: 8%
Phaseolus vulgaris [14]
  Activity: 32 cm
Phaseolus vulgaris [15]
  Activity: 4%
Phaseolus vulgaris [16]
  Crop_yield: 2.6 tons/ha
Phaseolus vulgaris [17]
  Activity: 2%
Phaseolus vulgaris [18]
  Activity: 137 g/m
Phaseolus vulgaris [19]
  Activity: 142 g/m
Phaseolus vulgaris [20]
  Activity: 35 cm
Phaseolus vulgaris [21]
  Activity: 13%
Phaseolus vulgaris [22]
  Activity: 5%
Phaseolus vulgaris [23]
  Crop_yield: 3.2 tons/ha
Phaseolus vulgaris [24]
  Crop_yield: 2.7 tons/ha
Phaseolus vulgaris [25]
  Activity: 34 cm
Phaseolus vulgaris [26]
  Activity: Non-toxic
Phaseolus vulgaris [27]
  Crop_yield: 3.1 tons/ha
Phaseolus vulgaris [28]
  Activity: 154 g/m
Phaseolus vulgaris [29]
  Crop_yield: 3 tons/ha
Phaseolus vulgaris [30]
  Crop_yield: 3.1 tons/ha
Phaseolus vulgaris [31]
  Crop_yield: 3.4 tons/ha
Phaseolus vulgaris [32]
  Activity: 10%
